US9381142B2, “Olfactory adaptation and cross-adapting agents to reduce the perception of body odors” (Monell Chemical Senses Center, priority 2002, dated 2016)

Experiments:
[1] = test system: male stress-derived axillary odor; assay: Cross-adaptation of male stress-derived axillary odor (odor panel, magnitude estimation of perceived intensity); assay type: in vivo, human; conditions: for Magnitude of Reduction of Intensity of Male Stress-Derived Odor (MSDO), Males: male stress-derived odor perceived by men; for Magnitude of Reduction of Intensity of Male Stress-Derived Odor (MSDO), Females: male stress-derived odor perceived by women
Description: (§1) The procedure relies upon an individual constantly sniffing an adapting agent, such as a fragrance, and occasionally a test odorant. Perceived intensity of the test odorant is obtained by using psychophysical, magnitude-estimation procedures. These perceived intensities are obtained every 30 seconds over the test period, and are then compared with baseline perceived intensities obtained before the individual began sniffing the adapting agent. Throughout the testing we observe adaptation to the adapting agent. Results during trials with an inserted test odorant, such as the axillary odor used here, are believed to be reasonably predictive. If the perceived intensity of the test odorant decreases during the test, then the adapting agent cross-adapts the test odorant and becomes a cross-adapting agent. If the cross-adapting agent is itself not offensive, then the cross-adapting agent becomes a candidate for use in formulations in consumer products to ameliorate malodors, such as axillary odor or fecal/urine odors, and odors related to the female menstrual cycle.
(§2) Collection of secretions: Apocrine secretions obtained under stressed conditions provided the axillary odor that was used as the test odorant to evaluate the effectiveness of various adapting agents. Secretions were obtained from males (ages 20 to 60 years) and females (ages 20 to 40 years) in good health. […] Volunteers prepared their axillae for collection of apocrine secretions by refraining from deodorant use for 3 days and shaving their axillae the morning of the collection day.
(§3) Volunteers were rested in a supine position. The axillary regions were washed with isopropanol-soaked pads and injected intradermally with 1:10,000 adrenalin (in physiologic saline). This injection stimulated the secretion of apocrine gland secretions, which were collected in 10 μl pipettes, passed into 0.25 ml Eppendorf tubes, and stored on ice (or frozen for longer storage). The amount of secretion collected varied greatly with the individual subject (≦10 μl). The apocrine secretions from each volunteer were combined by consecutively washing each Eppendorf tube with 2×300 μl of doubly distilled water. This aqueous-apocrine fluid was transferred to a 5 ml round-bottomed flask for hydrolysis. X-N. Zeng, J. J. Leyden, J. G. Brand, A. I. Spielman, K. J. McGinley, G. Preti, An Investigation of Human Apocrine Gland Secretion for Axillary Odor Precursors, 18 J. Chem. Ecol. 1039-1055 (1992); X-N. Zeng, J. J. Leyden, A. I. Spielman and G. Preti Analysis of the characteristic human female axillary odors: Qualitative comparison to males. 22 J. Chem. Ecol. 237-257 (1996).
(§4) Production of odor: To produce quantities of stress-derived axillary odor for testing purposes, we hydrolyzed the apocrine secretion. The aqueous solution was refluxed for 20 min with 0.5 ml, 5% aqueous sodium hydroxide under a stream of nitrogen. The mixture was allowed to cool to room temperature, and then it was cooled in ice prior to being acidified with 6 N HCl to pH 2. The resulting axillary odor developed in the reaction mixture upon acidification was used as the test odorant. The axillary odors generated by this in vitro technique are analogous to the malodors produced by stressed individuals.
Sixteen (16) individuals (8 of each gender) served on an odor panel. Subjects ranged in age from 22 to 55 years (mean 32.7±10.6 s.d.), were not pregnant (by verbal report), and were all non-smokers. All panel members were screened for adequate use of magnitude estimation (some people have difficulties maintaining a ratio scale, i.e., when an odorant is half as strong as the previous, these people fail to provide a number that is half the previous estimate) and further trained in its use during 2-3 training sessions. All 16 subjects were tested with samples of male malodor compared to each of the potential cross-adapting agents. […]

[2] = test system: female stress-derived axillary odor; assay: Cross-adaptation of female stress-derived axillary odor (odor panel, magnitude estimation of perceived intensity); assay type: in vivo, human; conditions: for Magnitude of Reduction of Intensity of Female Stress-Derived Odor (FSDO), Males: female stress-derived odor perceived by men; for Magnitude of Reduction of Intensity of Female Stress-Derived Odor (FSDO), Females: female stress-derived odor perceived by women
Description: as §1, §2, §3, §4
A separate panel of 24 subjects (12 males and 12 females) tested samples of female stress-derived axillary odor with potential cross-adapting agents, some of which were not included in Example 1 above. Some of the subjects assessing the effectiveness of cross-adaptation of male stress-derived axillary odor were also used in the experiment with female secretions. However, these two experiments were treated as independent events. All panel members were screened for adequate use of magnitude estimation and further trained in its use during two to three training sessions. […]

[3] = listed as E-isomer 3-methyl-2-pentenoic acid ethyl ester
Further: key: best: Best = Superior Cross-Adaptation; good: Good = Adequate Cross-Adaptation; poor: Poor = Ineffective Cross-Adaptation.

SMILES | Magnitude of Reduction of Intensity of Male Stress-Derived Odor (MSDO), Males [1] | Magnitude of Reduction of Intensity of Male Stress-Derived Odor (MSDO), Males [1, 3] | Magnitude of Reduction of Intensity of Male Stress-Derived Odor (MSDO), Females [1] | Magnitude of Reduction of Intensity of Male Stress-Derived Odor (MSDO), Females [1, 3] | Magnitude of Reduction of Intensity of Female Stress-Derived Odor (FSDO), Males [2] | Magnitude of Reduction of Intensity of Female Stress-Derived Odor (FSDO), Females [2]
CCOC(=O)C=C(C)CC (single isomer, unassigned) [E-isomer of 3-methyl-2-pentenoic acid ethyl ester, 3-methyl-2-pentenoic acid ethyl ester] | good | good | good | good | poor | poor
C=CCOC(=O)COC1CCCCC1 [Isoananat, allyl cyclohexyloxyacetate] | best |  | poor |  | good | poor
CO[C@]1(C)CC[C@@]23C[C@@H]1C(C)(C)[C@@H]2CC[C@H]3C [CEDRAMBER ®, cedryl methyl ether] | good |  | poor |  | good | good
